Consider three compounds from publication PMC8238948, “Potent inhibitors of toxic alpha-synuclein identified via cellular time-resolved FRET biosensors” (NPJ Parkinson's Disease, 2021).

SMILES strings stand for the structures. Structures can show the parent of a compound that is named as a salt.

In assay [1] the target is T1, intra-protomeric αSN biosensor (GFP-αSN-RFP) in HEK293 cells (Homo sapiens, UniProt P37840).
T1 construct: In addition to full-length αSN fusion constructs, we observe both C-terminally and N-terminally truncated αSN species; expressed in transfected cells; host or cells: HEK293
Description: FRET response on intra-protomeric αSN biosensor. In kind it is cell-based. The conditions noted are these: 10 µM. On the procedure:
Hits were also evaluated with the intra-protomeric αSN and control, non-specific biosensors. […] The compounds RO, BAY, and DEM as well as the control EGCG each reduced FRET, indicating either reduction in oligomerization or expanded oligomer conformation. Tests of these compounds in two control biosensor systems (GFP/RFP at 1:8 and GFP-linker32-RFP; see Supplementary Fig. 13a, b, respectively) show no significant FRET change.
Fig. 7 FRET response to pilot HTS hits on intra-protomeric αSN biosensor. […] With both donor and acceptor XFP fused to one construct, this biosensor is sensitive to both oligomer formation as well as conformation. […] Experiments were performed with n = 3; *p < 0.05, **p < 0.01, ***p < 0.001, ns indicates no significant difference as determined by Student’s t test.

The target in assay [2] is T2, αSN (15 μM monomeric αSN doped with 5% αSN PFF seeds) (Homo sapiens, UniProt P37840).
T2 construct: made in house; host or cells: Escherichia coli BL21(DE3), T7-7 plasmid
Description: Seeded Thioflavin-T aggregation assay. The note with it: 15 μM αSN monomer + 5% PFF; for IC50: 37 °C, max ThT intensity. In kind it is biochemical. The method, then: Figure 11 and Supplementary Fig. 23 present results from a dose-response-seeded aggregation assay. Vehicle, control, and hit compounds were incubated with 15 µM αSN(m), doped with 5% freshly sonicated αSN PFF in PBS under mild agitation (Supplementary Fig. 23a). […] Titration of control and hit compounds were run in triplicate; representative traces of hit compounds are illustrated in Fig. 11a with a full summary of each titration detailed in Supplementary Fig. 23c–h. IC50 was determined for each compound by determining the max ThT intensity for each concentration (Fig. 11b).
Seeded ThT aggregation assay was performed using 15 μM monomeric αSN doped with 5% (0.75 μM sonicated αSN pre-formed fibril (PFF) seeds) in a 384-well plate under slow agitation (300 RPM) at 37 °C. a Control samples for the aggregation include PBS (black), αSN monomer (brown), 5% αSN PFF (red), and the 15 μM monomer+5% PFF mixture (orange). Dose-response curves were made with a titration of compounds. […] In contrast, RO and DEM both show potent effects relative to Baicalin and EGCG controls. BAY does have some response, but it lags behind other hit compounds. b Normalizing the initial peak in ThT data allows us to estimate an IC50 for each hit. […] Although there is a small trend with BAY, the data cannot be fit to resolve an IC50.
ThT (Sigma, product no. T3516) was dissolved in PBS buffer and was filtered through a 0.2-µm syringe filter to make a stock solution of 2.5 mM. Working ThT concentration was 20 µM. PFF seeds were produced via constant agitation of 1000 RPM at 37 °C (ThermoMixer-C, Eppendorf, Hauppauge, NY) of 500 µL of 350 µM αSN in PBS in a 2 mL tube for 5 days. PFFs were aliquoted and flash frozen and stored at −80 °C until further use. PFF seeds were rapidly thawed, diluted to 35 µM in PBS, and sonicated 120 pulses at 50% using a probe-tip sonicator following the established protocols. Master mix samples for each of the different ThT assays were prepared and dispensed in triplicate as 50 µL in 384-well flat, black-bottom polypropylene plates (PN 781209, Greiner Bio-One) and sealed with fluorescently transparent film. Conditions for non-seeded, seeded, and cell homogenate assays varied slightly.
Seeded ThT experiments were performed at a lower monomer concentration to preclude spontaneous αSN aggregation during the time course of the experiment. For both seeded and cell homogenate experiments, sample were prepared in PBS + 20 µM ThT with or without 15 µM αSN(m) +/− 5% PFF (0.75 µM). Additional control samples of 15 µM PFF and 0.75 µM PFF were also prepared. All empty wells were filled with PBS for a thermal sink and to help prevent evaporation. Assay plates were prepared as pre-cellular FRET dose response above. Dose response was done across 8 concentrations (10 nM to 50 µM). The assay was run at 37 °C with mild shaking (200 RPM) in a Cytation3 plate reader. The ThT fluorescence was monitored with excitation filter of 450 nm and emission filter of 490 nm. Readings were acquired every 20 min for a minimum of 24 h. Seeded ThT aggregation IC50 values were determined by first normalizing all ThT curves to the maximal signal at plateau for the αSN + 5% PFF + DMSO samples. The normalized fluorescence at each concentration was fit to the Hill equation to resolve an effective IC50 of seeded aggregation inhibition.

For assay [3], the target named is T3, A53T αSN oligomer (inter-protomeric) FRET biosensor in HEK293 cells (Homo sapiens, UniProt P37840, A53T).
T3 construct: In addition to full-length αSN fusion constructs, we observe both C-terminally and N-terminally truncated αSN species; expressed in transfected cells; host or cells: HEK293
Description: FLT dose response, A53T oligomer (inter-protomeric) FRET biosensor. In kind it is cell-based. The conditions noted are these: 1 nM to 50 μM. The method, then:
(§1) Hits from the pilot HTS of the LOPAC library were selected and dispensed into 384-well plates to verify reproducible and specific FLT trends using the WT and A53T oligomer (inter-protomeric) FRET biosensors. Figure 6 presents a subset of these dose-response curves for hit compounds RO, BAY, SB206553, and DEM, along with known control compound EGCG. […] Assay quality was determined by Z′ (Eq. 2) where a Z′ > 0.5 indicates good assay quality. Using EGCG as control compound and the hit DEM, we calculated Z′ value of 0.76 and 0.66, respectively, indicating excellent assay quality.
(§2) Fig. 6 FRET dose response of pilot HTS hits. A subset of hits were evaluated using both WT (a) and A53T (b) oligomer biosensor to verify both increased FLT (disrupting αSN–αSN interactions) and decreased FLT (tighter aggregation or remodeled oligomers).
(§3) Compounds were tested in a FLT dose-response assay. The compound was dissolved to 10 mM in DMSO, then serially diluted in 96-well mother plates. Each hit was re-screened for FLT dose response across eight concentrations (1 nM to 50 μM). Compounds (0.5 μL) were transferred from mother plates into assay plates using a Mosquito HV liquid handler (TTP Labtech Ltd, UK). The preparations for αSN FRET biosensors were carried out as above.

The target in assay [4] is T4, WT αSN oligomer (inter-protomeric) FRET biosensor in HEK293 cells (Homo sapiens, UniProt P37840).
T4 construct: In addition to full-length αSN fusion constructs, we observe both C-terminally and N-terminally truncated αSN species; expressed in transfected cells; host or cells: HEK293
Description: FLT dose response, WT oligomer (inter-protomeric) FRET biosensor. In kind it is cell-based. The note with it: 1 nM to 50 μM. The method, then:
as §1, §2, §3

For `CN(C)[C@@H]1C(O)=C(C(N)=O)C(=O)[C@@]2(O)C(O)=C3C(=O)c4c(O)ccc(Cl)c4[C@@H](O)[C@H]3C[C@@H]12` [DEM, Demeclocycline HCl], in assay [1], the “change in intra-protomeric FRET” value is reported as “reduced FRET”. Further, the IC50 (as a rule, the concentration that gives 50% inhibition) in assay [2] was 1000 nM. The “FLT trend in dose response” value in assay [3] and in assay [4] was “reduced FLT” in each case.

`Nc1ccc(-c2nc3ccc(-c4nc5ccc(N)cc5[nH]4)cc3[nH]2)cc1` [RO, Ro 90–7501]: in assay [1], the “change in intra-protomeric FRET” value is reported as “reduced FRET”. In assay [2], the IC50 was determined as 931 nM. Further, the “FLT trend in dose response” value in assay [3] and in assay [4] was “reduced FLT” each time.

For `COC(=O)C1=C(C)NC(C)=C([N+](=O)[O-])C1c1ccccc1C(F)(F)F` (racemic) [BAY, (±)-Bay K 8644], the “change in intra-protomeric FRET” value in assay [1] is listed as “reduced FRET”. For the same compound, the “effect on seeded aggregation” value in assay [2] (titration up to 50 μM) is listed as “cannot be fit”. The “FLT trend in dose response” value in assay [3] and in assay [4] was “reduced FLT” each time.
